“Also recorded” adds a separate entry of the source. Like-named read-outs stand apart in the source and are kept apart here.
Columns and labels:
Format in all cases: biochemical
[1] = target: T1, recombinant hTREX1(1-242)WT (hT1) (Homo sapiens, UniProt Q9NSU2); test: fluorescence-based exonuclease assay, hTREX1 IC50 and HTS
T1 construct: recombinant hTREX1(1-242)^WT
T1 sequence (Q9NSU2 1-242): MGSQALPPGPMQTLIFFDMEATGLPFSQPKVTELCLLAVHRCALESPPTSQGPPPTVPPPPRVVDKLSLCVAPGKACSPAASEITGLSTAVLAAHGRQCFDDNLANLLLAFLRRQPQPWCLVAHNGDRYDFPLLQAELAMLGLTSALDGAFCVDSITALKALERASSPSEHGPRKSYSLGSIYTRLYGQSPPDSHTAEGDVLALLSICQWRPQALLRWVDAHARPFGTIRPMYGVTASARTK
Experimental: FIG. 1: Determining IC50 of Candidate Compounds. […] Standard time-course reactions were prepared in 150 µL volumes containing vehicle or indicated concentrations of inhibitor (Panel A= 0.1-10 µM; Panel C= 1-50 µM), incubated 1 hr at room temperature, and 20 µL samples of each reaction taken at time-points of 0, 5, 10, 20, 30, 45, & 60 minutes and quenched in 20 µL of 15X SYBR Green. Fluorescence was measured, and fluorescence versus time plots were normalized to maximal initial fluorescence and background fluorescence. Plots were fitted with nonlinear regression, then initial velocities of each reaction interpolated and normalized to vehicle-only control reactions to give percent activity. Plots of inhibitor concentration versus percent activity were fit with nonlinear regression to interpolate compound IC50. Plots were generated in Prism (GraphPad) and combined in PowerPoint. Active compounds had IC50 determined in at least three separate experiments. Panels E-F: Gel Assay Validation of Hit Compound IC50. Several hit compounds, including those shown, had their IC50 confirmed via gel assay to validate efficacy of the fluorescence-based biochemical assay. Results of the gel and fluorescence assays were in agreement for all compounds tested. Standard time-course reactions containing nicked plasmid were prepared in 150 µL volumes with the indicated concentrations of inhibitor, and incubated at room temperature. Reaction samples were taken at indicated times, quenched, dried in vacuo, resuspended, then visualized by agarose gel electrophoresis. Control lanes containing supercoiled dsDNA plasmid (‘Plasmid’) and undegraded nicked dsDNA plasmid (‘Nicked’) are included. Low-MW residual bands are ssDNA plasmid leftover from TREX1 exonuclease activity.
We altered a reported fluorescence-based exonuclease assay^17,23 for the purposes of HTS. The assay parameters were optimized to limit materials use and maximize the dynamic range of the assay readout. We used this assay to perform a HTS of the three mentioned libraries against recombinant hTREX1(1-242)^WT, hereafter abbreviated as ‘hT1’. In the case of all libraries, compounds eliciting ≤50% activity at their indicated screening concentrations were identified as ‘candidates’.
The biochemical assay used for HTS was also applied to determining candidate IC50. Briefly, time-course reactions were performed for a range of concentrations for each candidate, and plots of fluorescence vs time were normalized to the initial fluorescence of the reaction and the plate-wide background fluorescence. This normalization helped address compounds with inherent effects on the fluorescent readout. Initial velocities were calculated from normalized plots and used to calculate percent activities relative to vehicle-only control reactions. Standard dose-response curves were then constructed to interpolate candidate IC50. […] Candidates that initially tested with IC50 ≤100 µM had their IC50 redetermined in two additional, independent experiments. […] To validate the efficacy of the fluorescence-based assay at determining IC50, several of the hit compounds had their IC50 confirmed using a gel assay previously described by our lab^23. Briefly, a dsDNA plasmid is nicked, the substrate is incubated with TREX1 which degrades off (partially or completely) the nicked strand, and the reaction is quenched in ethanol, dried in vacuo, and visualized via agarose gel electrophoresis. Example data of these validation assays is provided (FIG. 1, Panels E-F).

hT1 = target: T2, hT1 (Homo sapiens, UniProt Q9NSU2); test: jump-dilution reversibility of inhibition; conditions: for reversibility classification: by IC50 ratio of jump-dilution
T2 construct: recombinant hTREX1(1-242)^WT
T2 sequence (Q9NSU2 1-242): T1 sequence (Q9NSU2 1-242)
Experimental: FIG. 4: Reversibility of Inhibition for Lead Compounds. Panel A: Summary chart of the results for each lead compound. IC50 ratios were calculated by dividing the […]. An IC50 ratio of 10 is expected for irreversible inhibitors, and the results were classified as follows: ≥ 5.0 → Irreversible, 2.0-5.0 → Ambiguous, 0.5-2.0 → Reversible. Panels B-G: Standard IC50 experiments were conducted with various concentrations of each lead compound. However, before enzyme addition to the reaction components the inhibitor or vehicle was pre-incubated with either the reaction components at ~1X the final concentration (‘Reaction Pre-Incubation’) or the enzyme at ~10X the final concentration (‘Enzyme Pre-Incubation’). The enzyme and reaction components were then combined to initiate reactions, and IC50 calculated as discussed earlier. TIM190 was included as an example of an irreversible inhibitor. Plots were generated in Prism (GraphPad), and figure was assembled in PowerPoint.
To determine whether our leads’ inhibition mechanisms were reversible, we utilized a strategy known as a ‘jump-dilution′^76. With this strategy, an inhibitor is initially incubated with the target at a high concentration, then, the inhibitor and target are diluted into reaction mix and the potency of the inhibitor is compared to a similar reaction without the pre-incubation step. If an inhibitor is covalent, time-dependent (slow-binding), or otherwise irreversible, then it will display potency consistent with the higher initial concentration, while reversible inhibitors’ potency is not meaningfully affected by the pre-incubation. We performed jump dilution experiments for our leads with our earlier described biochemical assay (FIG. 3). Under our conditions, irreversible inhibitors were expected to display a 10-fold potency increase in the jump-dilution reactions.

[2] = target: T3, recombinant wild-type murine TREX1(1-242) (mT1) (Mus musculus, UniProt Q91XB0); test: fluorescence-based exonuclease assay, counter-screen against mTREX1; conditions: up to an inhibitor concentration of 100 µM
T3 construct: recombinant wild-type murine TREX1(1-242), hereafter ‘mT1’
T3 sequence (Q91XB0 1-242): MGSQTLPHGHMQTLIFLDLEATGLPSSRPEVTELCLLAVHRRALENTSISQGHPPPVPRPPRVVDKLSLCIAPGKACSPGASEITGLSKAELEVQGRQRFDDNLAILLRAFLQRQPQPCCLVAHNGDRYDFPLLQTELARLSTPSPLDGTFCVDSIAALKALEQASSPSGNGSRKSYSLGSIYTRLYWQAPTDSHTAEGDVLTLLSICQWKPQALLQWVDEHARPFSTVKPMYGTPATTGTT
Experimental: (§1) FIG. 3: Counter-Screening Hit Compounds Against mTREX1 and hTREX2 Enzymes. Panel A: Summary chart of lead compounds’ IC50 against hTREX1 vs mTREX1 versus hTREX2. Panels B-F: Overlay of lead compounds’ dose-response curves for hTREX1, mTREX1, and hTREX2. Dose-response curves were generated as described earlier. Each dose-response curve is representative of three IC50 experiments. Graphs were prepared in Prism (GraphPad), and figure was assembled in PowerPoint.
(§2) We were also interested in the activity of our leads against enzymes more closely related to hT1, namely murine TREX1 and the highly related human TREX2 enzyme. mTREX1 was of interest, since future studies of the lead compounds would presumably take place in a murine model. hTREX2, which also functions as a 3′➔5′ exonuclease, is primarily expressed in keratinocytes (while TREX1 expression is more ubiquitous), and its mutation is not associated with an autoimmune phenotype, but instead results in a hypermutator phenotype in the skin that is conditional upon exposure to ultraviolet radiation^10,72-74. For mTREX1, cross-activity was preferred to allow later efficacy studies in a murine model. […] We determined the IC50 of lead compounds for recombinant wild-type murine TREX1(1-242), hereafter ‘mT1’, and for recombinant wild-type human TREX2(1-236), hereafter ‘hT2’ (FIG. 2). […]

[3] = target: T4, recombinant wild-type human TREX2(1-236) (hT2) (Homo sapiens, UniProt Q9BQ50); test: fluorescence-based exonuclease assay, counter-screen against hTREX2; conditions: up to an inhibitor concentration of 100 µM
T4 construct: recombinant wild-type human TREX2(1-236), hereafter ‘hT2’
T4 sequence (Q9BQ50 1-236): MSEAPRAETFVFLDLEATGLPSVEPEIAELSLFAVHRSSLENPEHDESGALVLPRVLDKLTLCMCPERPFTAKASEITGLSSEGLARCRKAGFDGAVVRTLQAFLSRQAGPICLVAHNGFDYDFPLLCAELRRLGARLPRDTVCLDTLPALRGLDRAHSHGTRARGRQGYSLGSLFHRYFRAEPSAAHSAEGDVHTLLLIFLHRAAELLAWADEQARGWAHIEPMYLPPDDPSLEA
Experimental: as §1, §2

[4] = experiment 1, read-out: IC50 #1
[5] = experiment 2, read-out: IC50 #2
[6] = experiment 3, read-out: IC50 #3
[7] = median of three independent experiments, read-out: Median IC50

SMILES	IC50 [1, 4]	IC50 [1, 5]	IC50 [1, 6]	IC50 [1, 7]	reversibility classification (hT1)	increase in potency as a result of the jump-dilution (hT1; enzyme pre-incubation vs control reaction, 10-fold expected for irreversible inhibitors)	inhibition of hT1 (in words) [1]	inhibition of hT2 [3]	inhibition of mT1 [2]
COc1ccc2[nH]c3c(c2c1)CCC[C@H]3NC(=O)COc1ccc2c3c(c(=O)oc2c1)CCCC3 [TIM184]	5.1 µM	7 µM	7 µM	7 µM					
O=c1c2cnc3nc(-c4ccc(Cl)cc4)nn3c2ccn1Cc1cccnc1 [TIM215]	13.9 µM	14.6 µM	12 µM	13.9 µM					
CC(C)(C)c1ccc(CC2CCN(C(=O)c3cncn3-c3cccc(-c4cccc5c4sc4ccccc45)c3)CC2)cc1 [TIM181]	3.5 µM	5.9 µM	4.6 µM	4.6 µM					
Cn1c(O)c(N=NC(=O)[C@@H]2COc3cc4ccccc4cc3O2)c2cc(Br)ccc21 [TIM191]	8.5 µM	7.8 µM	10 µM	8.5 µM					
Cc1cnc(/C=C/c2ccccc2)c2[nH]c3ccccc3c12 [TIM047]	16 µM	6.8 µM	15 µM	15 µM					
CCn1c2ccccc2c2cc([C@H]3Nc4ccccc4NC4=C3C(=O)C[C@@H](c3ccc(OC)cc3)C4)ccc21 [TIM137]	6.7 µM	16.2 µM	5.6 µM	6.7 µM					
Cc1ccc(-c2noc(-c3cc(N4CCC(C(N)=O)CC4)nc4ccccc34)n2)cc1 [TIM178]	6.9 µM	3.7 µM	7.2 µM	6.9 µM					
Cc1cccc(C(=O)Nc2ccc(-c3cc4ccccc4oc3=O)cc2)c1 [TIM003]	24.9 µM	7.8 µM	8.8 µM	8.8 µM					
O=C(c1ccc2nonc2c1)N1CCCCC1c1nc2cc(F)ccc2[nH]1 (stereo not shown) [TIM218]	12.7 µM	7.6 µM	17.8 µM	12.7 µM			did inhibit hT1	no detectable inhibition	no detectable inhibition; also recorded: does not inhibit mT1
N#Cc1c(O)nc(SCC(=O)N2c3ccccc3Sc3ccccc32)nc1-c1ccccc1 [TIM183]	3.6 µM	8.5 µM	8.8 µM	8.5 µM					

More lines, main results first:

IC50 [1, 4]	IC50 [1, 5]	IC50 [1, 6]	IC50 [1, 7]	reversibility classification (hT1)	increase in potency as a result of the jump-dilution (hT1; enzyme pre-incubation vs control reaction, 10-fold expected for irreversible inhibitors)	inhibition of hT1 (in words) [1]	inhibition of hT2 [3]	SMILES	inhibition of mT1 [2]
13.1 µM	14.9 µM	113 µM	14.9 µM					Cc1ccc2nc(N3C(=O)C(=O)C(=C(O)c4ccc5c(c4)C[C@H](C)O5)[C@@H]3c3cccs3)sc2c1 [TIM185]	
15 µM	6.4 µM	37.9 µM	15 µM					Cc1cc(C)c(S(=O)(=O)Nc2ccc3c(c2)c2c(n3S(=O)(=O)c3cc(C)c(C)cc3C)CCCC2=O)cc1C [TIM146]	
10.7 µM	10.7 µM	13.5 µM	10.7 µM	irreversible				O=C(O)c1ccc(-c2ccc(/C=c3\sc4nc5cc(Br)cnc5n4c3=O)o2)cc1 [TIM190]	
13.3 µM	13 µM	8.1 µM	13 µM					COc1cc2c3c(ccc4c5ccc6c7c(cc(OC)c(c1c34)c75)-c1ccccc1C6=O)-c1ccccc1C2=O [TIM192]	
5.7 µM	9.9 µM	10.2 µM	9.9 µM					O=C1c2cccc([N+](=O)[O-])c2C(=O)N1c1cccc(-c2nc3ccccc3c(=O)o2)c1 [TIM136]	
6.4 µM	8.5 µM	11.9 µM	8.5 µM					Cc1ccc(-n2c(=O)c3cc4c(=O)n(-c5ccc(C)c(C)c5)c(=O)c4c(C(=O)c4ccc(C(=O)O)cc4)c3c2=O)cc1C [TIM148]	
2.4 µM	5 µM	10.7 µM	5 µM					O=C1Nc2ccc(S(=O)(=O)ON3C(=O)c4cccc5cccc(c45)C3=O)c3cccc1c23 [TIM213]	
13.5 µM	7.8 µM	8.9 µM	8.9 µM	ambiguous	2.9 fold			Cc1ccc(N2NC(=O)/C(=C/c3ccc(-c4ccc5c(c4)C(=O)NC5=O)o3)C2=O)cc1C [TIM207]	
3.7 µM	3 µM	5.3 µM	3.7 µM					COc1ccc(N2C(=O)c3ccc(Oc4ccc(Oc5ccc(C(=O)O)cc5)cc4)cc3C2=O)cc1 [TIM050]	

— patent US20230278957A1, “TREX1 INHIBITORS AND USES THEREOF” (WAKE FOREST UNIVERSITY HEALTH SCIENCES, priority 2020, published 2023)
